Values joined by “and” are separate entries in the source; they are usually repeats but may differ in a detail not shown here. Identical values can stand only once. Toxic doses and inconclusive results are not listed. Peptide text beside a SMILES is read from it. * marks the point of attachment. Boc = CC(C)(C)OC(=O)*
System: P388 leukemia ip, CD2F1 mice, survival T/C
Assay: NCI In Vivo Anticancer Drug Screen. Data for tumor model P388 Leukemia (intraperitoneal) in CD2F1 (CDF1) mice
Settings: endpoint: median survival time, higher = longer survival
Experimental: The antitumor activity of compounds was measured in mice bearing transplantable tumors. Survival or tumor size were measured and the results are expressed as the measurement made in the treated group (T) divided by the measurement made in the vehicle treated control group (C). The tumor model used in this assay is P388 Leukemia (intraperitoneal) in CD2F1 (CDF1) mice

[1] = dose: 25.0 mg/kg/injection, schedule: Q01DX009 (ip), vehicle: saline with Tween-80
[2] = dose: 50.0 mg/kg/injection, schedule: Q01DX005 (ip), vehicle: Klucel (hydroxypropylcellulose) (HPC)
[3] = dose: 100.0 mg/kg/injection, schedule: Q01DX005 (ip), vehicle: Klucel (hydroxypropylcellulose) (HPC)
[4] = dose: 200.0 mg/kg/injection, schedule: Q01DX005 (ip), vehicle: Klucel (hydroxypropylcellulose) (HPC)
[5] = dose: 50.0 mg/kg/injection, schedule: Q01DX005 (ip), vehicle: saline with Tween-80
[6] = dose: 50.0 mg/kg/injection, schedule: Q01DX009 (ip), vehicle: saline with Tween-80
[7] = dose: 100.0 mg/kg/injection, schedule: Q01DX009 (ip), vehicle: saline with Tween-80
[8] = dose: 25.0 mg/kg/injection, schedule: Q01DX009 (ip), vehicle: Klucel (hydroxypropylcellulose) (HPC)
[9] = dose: 50.0 mg/kg/injection, schedule: Q01DX009 (ip), vehicle: Klucel (hydroxypropylcellulose) (HPC)
[10] = dose: 100.0 mg/kg/injection, schedule: Q01DX009 (ip), vehicle: Klucel (hydroxypropylcellulose) (HPC)
[11] = dose: 200.0 mg/kg/injection, schedule: Q01DX009 (ip), vehicle: Klucel (hydroxypropylcellulose) (HPC)
[12] = dose: 60.0 mg/kg/injection, schedule: Q01DX005 (ip), vehicle: saline
[13] = dose: 120.0 mg/kg/injection, schedule: Q01DX005 (ip), vehicle: saline
[14] = dose: 240.0 mg/kg/injection, schedule: Q01DX005 (ip), vehicle: saline

O=C1c2ccccc2C(Cl)=C(Cl)C1(Cl)Cl
T/C (dose: 12.5 mg/kg/injection, schedule: Q01DX009 (ip), vehicle: saline with Tween-80): 104 % of control | T/C [1]: 90 % of control

O=C([CH-]C(=O)C(F)(F)F)C(F)(F)F.O=C([CH-]C(=O)C(F)(F)F)C(F)(F)F.O=C([CH-]C(=O)C(F)(F)F)C(F)(F)F.[Ru+3]
T/C (dose: 7.5 mg/kg/injection, schedule: Q01DX005 (ip), vehicle: Klucel (hydroxypropylcellulose) (HPC)): 97 % of control | T/C (dose: 15.0 mg/kg/injection, schedule: Q01DX005 (ip), vehicle: Klucel (hydroxypropylcellulose) (HPC)): 87 % of control

O=C1C(Cl)=C(NC(=O)C2CCCCC2)C(=O)C(Cl)=C1NC(=O)C1CCCCC1
T/C (dose: 25.0 mg/kg/injection, schedule: Q01DX005 (ip), vehicle: Klucel (hydroxypropylcellulose) (HPC)): 90 % of control | T/C [2]: 90 % of control | T/C [3]: 88 % of control | T/C [4]: 89 % of control

CC(C)=CCC/C(C)=C/COC(=O)C1C(C=C(C)C)C1(C)C (configuration not stated)
T/C (dose: 50.0 mg/kg/injection, schedule: Q01DX009 (ip), vehicle: saline): 100 % of control | T/C (dose: 100.0 mg/kg/injection, schedule: Q01DX009 (ip), vehicle: saline): 100 % of control | T/C (dose: 200.0 mg/kg/injection, schedule: Q01DX009 (ip), vehicle: saline): 116 % of control | T/C (dose: 400.0 mg/kg/injection, schedule: Q01DX009 (ip), vehicle: saline): 101 % of control

Cc1cnc2cc(Cl)ccc2c1SCC(=O)O
T/C [5]: 104 % of control | T/C (dose: 100.0 mg/kg/injection, schedule: Q01DX005 (ip), vehicle: saline with Tween-80): 108 % of control | T/C (dose: 200.0 mg/kg/injection, schedule: Q01DX005 (ip), vehicle: saline with Tween-80): 108 % of control

O=C(NC1CCCCC1)O/N=C/c1cccnc1
T/C [6]: 101 % of control | T/C [7]: 98 % of control | T/C (dose: 200.0 mg/kg/injection, schedule: Q01DX009 (ip), vehicle: saline with Tween-80): 93 % of control

CC(=O)O[C@H]1C(=O)[C@]2(C)[C@@H](OC(C)=O)CC3OC[C@@]3(OC(C)=O)[C@H]2[C@H](OC(=O)c2ccccc2)[C@]2(O)C[C@H](OC(=O)[C@H](O)[C@@H](NC(=O)c3ccccc3)c3ccccc3)C(C)=C1C2(C)C (some centres not stated)
T/C (dose: 2.5 mg/kg/injection, schedule: Q01DX005 (ip), vehicle: DMSO): 100 % of control | T/C (dose: 5.0 mg/kg/injection, schedule: Q01DX005 (ip), vehicle: DMSO): 111 % of control

N[C@H]1CN([C@@H](C(=O)O)c2ccc(O)cc2)C1=O
T/C [2]: 105 % of control | T/C [3]: 105 % of control | T/C [4]: 103 % of control | T/C (dose: 400.0 mg/kg/injection, schedule: Q01DX005 (ip), vehicle: Klucel (hydroxypropylcellulose) (HPC)): 99 % of control

O=C1CSC(c2ccc(C(F)(F)F)cc2)N1c1nncs1 (configuration not stated)
T/C (dose: 60.0 mg/kg/injection, schedule: Q01DX005 (ip), vehicle: saline with Tween-80): 99 % of control | T/C (dose: 120.0 mg/kg/injection, schedule: Q01DX005 (ip), vehicle: saline with Tween-80): 104 % of control | T/C (dose: 240.0 mg/kg/injection, schedule: Q01DX005 (ip), vehicle: saline with Tween-80): 97 % of control

CC(C)=CC1C(/C(C)=C/CCCCC(=O)O)C1(C)C (configuration not stated)
T/C (dose: 100.0 mg/kg/injection, schedule: Q04DX002 (ip), vehicle: saline with Tween-80): 101 % of control | T/C (dose: 200.0 mg/kg/injection, schedule: Q04DX002 (ip), vehicle: saline with Tween-80): 94 % of control | T/C (dose: 400.0 mg/kg/injection, schedule: Q04DX002 (ip), vehicle: saline with Tween-80): 96 % of control

NC(C(=O)O)C(N)C(=O)O (configuration not stated)
T/C [7]: 90 % of control | T/C (dose: 400.0 mg/kg/injection, schedule: Q01DX009 (ip), vehicle: saline with Tween-80): 100 % of control

Cn1nc(N)c2ncc(-c3ccc(Cl)cc3)nc21
T/C (dose: 100.0 mg/kg/injection, schedule: Q04DX003 (ip), vehicle: saline with Tween-80): 90 % of control | T/C (dose: 200.0 mg/kg/injection, schedule: Q04DX003 (ip), vehicle: saline with Tween-80): 95 % of control

COC(=Nc1ccccc1)SSC(C)C
T/C [1]: 115 % of control | T/C [6]: 115 % of control

COC1/C=C\OC2(C)Oc3c(C)c(O)c4c(c3C2=O)C2=NC(C)(C)N(c3ccccc3)C2=C(NC(=O)/C(C)=C\C=C\C(C)C(O)C(C)C(O)C(C)C(OC(C)=O)C1C)C4=O (configuration not stated)
T/C [8]: 100 % of control | T/C [9]: 103 % of control | T/C [10]: 98 % of control | T/C [11]: 107 % of control

C/C(=N\Nc1cc(C)c2ccccc2n1)c1ccccn1
T/C (dose: 12.5 mg/kg/injection, schedule: Q01DX005 (ip), vehicle: saline with Tween-80): 103 % of control | T/C (dose: 25.0 mg/kg/injection, schedule: Q01DX005 (ip), vehicle: saline with Tween-80): 103 % of control | T/C [5]: 102 % of control and 115 % of control

CC[As](CC)SC(CC[C@@H](C)C1CC[C@@]2(C)C3=C(CC[C@]12C)[C@@]1(C)CC[C@H](O)C(C)(C)[C@@H]1CC3)C(C)C (some centres not stated)
T/C [2]: 87 % of control | T/C [3]: 92 % of control | T/C [4]: 95 % of control

CN(C)CC[CH2][Sn]([CH3])([c]1ccccc1)[c]1ccccc1
T/C (dose: 6.25 mg/kg/injection, schedule: Q01DX009 (ip), vehicle: suspension in saline): 88 % of control | T/C (dose: 12.5 mg/kg/injection, schedule: Q01DX009 (ip), vehicle: suspension in saline): 101 % of control | T/C (dose: 25.0 mg/kg/injection, schedule: Q01DX009 (ip), vehicle: suspension in saline): 103 % of control

O=S1(=O)CC(SC2CS(=O)(=O)C2)C1
T/C (dose: 100.0 mg/kg/injection, schedule: Q01DX001 (ip), vehicle: saline with Tween-80): 103 % of control | T/C (dose: 200.0 mg/kg/injection, schedule: Q01DX001 (ip), vehicle: saline with Tween-80): 101 % of control | T/C (dose: 400.0 mg/kg/injection, schedule: Q01DX001 (ip), vehicle: saline with Tween-80): 100 % of control

CNC1CCc2cc(OC)ccc21 (configuration not stated)
T/C (dose: 50.0 mg/kg/injection, schedule: Q01DX001 (ip), vehicle: Klucel (hydroxypropylcellulose) (HPC)): 107 % of control | T/C (dose: 100.0 mg/kg/injection, schedule: Q01DX001 (ip), vehicle: Klucel (hydroxypropylcellulose) (HPC)): 102 % of control

CCC12C[N+]3([O-])CCc4c([nH]c5ccccc45)C(C(=O)OC)(c4cc5c(cc4OC)N(C)C4C(O)(C(=O)OC)C(OC(C)=O)C6(CC)C=CCN7CCC54C76)CC(C3)C1O2 (configuration not stated)
T/C (dose: 2.0 mg/kg/injection, schedule: Q01DX001 (ip), vehicle: water): 102 % of control | T/C (dose: 8.0 mg/kg/injection, schedule: Q01DX001 (ip), vehicle: distilled water + Tween-80): 161 % of control | T/C (dose: 8.0 mg/kg/injection, schedule: Q01DX001 (ip), vehicle: water): 122 % of control | T/C (dose: 16.0 mg/kg/injection, schedule: Q01DX001 (ip), vehicle: distilled water + Tween-80): 193 % of control | T/C (dose: 32.0 mg/kg/injection, schedule: Q01DX001 (ip), vehicle: water): 171 % of control | T/C (dose: 64.0 mg/kg/injection, schedule: Q01DX001 (ip), vehicle: water): 190 % of control

CCN(C(=O)CNCC(C)C)c1ccc(C)c(Cl)c1
T/C (dose: 50.0 mg/kg/injection, schedule: Q01DX005 (ip), vehicle: saline): 100 % of control | T/C (dose: 100.0 mg/kg/injection, schedule: Q01DX005 (ip), vehicle: saline): 99 % of control

CCC(C)C(N)C(=O)N1CCCC1C(=O)O (stereo not drawn) (H-Ile-Pro-OH; configuration not given here)
T/C [12]: 98 % of control | T/C [13]: 98 % of control | T/C [14]: 102 % of control

CCCCCCCCC(=O)c1c(OC)oc(/C=N/NC(N)=O)cc1=O
T/C [8]: 92 % of control | T/C [9]: 89 % of control | T/C [10]: 92 % of control | T/C [11]: 91 % of control

CCCCCCNP1(NCCCCCC)=NP(NCCCCCC)(NCCCCCC)=NP(NCCCCCC)(NCCCCCC)=NP(NCCCCCC)(NCCCCCC)=N1
T/C (dose: 37.5 mg/kg/injection, schedule: Q01DX005 (ip), vehicle: Klucel (hydroxypropylcellulose) (HPC)): 90 % of control | T/C (dose: 75.0 mg/kg/injection, schedule: Q01DX005 (ip), vehicle: Klucel (hydroxypropylcellulose) (HPC)): 97 % of control

CCC(C)C(NC(=O)OC(C)(C)C)C(=O)NC(CCSC)C(N)=O (stereo not drawn) (Boc-Ile-Met-NH2; configuration not given here)
T/C [2]: 97 % of control | T/C [3]: 95 % of control | T/C [4]: 89 % of control

Cc1c(C(=O)NCCN(C)C)n(C)c(=O)c2ccccc12
T/C [12]: 98 % of control | T/C [13]: 93 % of control | T/C [14]: 94 % of control
